Experimental data published in patent US11053204B2, “Pyrimidinyloxy benzene derivatives as herbicides” (FMC Corporation, priority 2015, dated 2021).

Key:
Assay type in all cases: in vivo
[1] = system: morningglory (Ipomoea spp.); assay: Test A preemergence, visual injury rating; conditions: 0 to 100 scale (0 no effect, 100 complete control)
Procedure, shortened: (§1)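 Injury scores run from 0, no effect, to 100, complete control, judged by eye against untreated plants roughly 10 days after treatment. Chemicals carried a surfactant in a non-phytotoxic solvent and went onto loam–sand soil preemergence or onto one- to two-leaf seedlings postemergence.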

[2] = system: velvetleaf (Abutilon theophrasti); assay: Test A preemergence, visual injury rating; conditions: 0 to 100 scale (0 no effect, 100 complete control)
Procedure, shortened: as §1

[3] = system: large (Lg) crabgrass (Digitaria sanguinalis); assay: Test A preemergence, visual injury rating; conditions: 0 to 100 scale (0 no effect, 100 complete control)
Procedure, shortened: as §1

[4] = system: wheat (Triticum aestivum); assay: Test A preemergence, visual injury rating; conditions: 0 to 100 scale (0 no effect, 100 complete control)
Procedure, shortened: as §1

[5] = system: giant foxtail (Setaria faberii); assay: Test A preemergence, visual injury rating; conditions: 0 to 100 scale (0 no effect, 100 complete control)
Procedure, shortened: as §1

[6] = system: pigweed (Amaranthus retroflexus); assay: Test A preemergence, visual injury rating; conditions: 0 to 100 scale (0 no effect, 100 complete control)
Procedure, shortened: as §1

corn (Zea mays) [7] = assay: Test A preemergence, visual injury rating; conditions: 0 to 100 scale (0 no effect, 100 complete control)
Procedure, shortened: as §1

[8] = system: barnyardgrass (Echinochloa crus-galli); assay: Test A preemergence, visual injury rating; conditions: 0 to 100 scale (0 no effect, 100 complete control)
Procedure, shortened: as §1

[9] = system: morningglory (Ipomoea spp.); assay: Test A postemergence, visual injury rating; conditions: 0 is no effect, 100 is complete control
Procedure, shortened: as §1

[10] = system: velvetleaf (Abutilon theophrasti); assay: Test A postemergence, visual injury rating; conditions: 0 is no effect, 100 is complete control
Procedure, shortened: as §1

[11] = system: large (Lg) crabgrass (Digitaria sanguinalis); assay: Test A postemergence, visual injury rating; conditions: 0 is no effect, 100 is complete control
Procedure, shortened: as §1

[12] = system: wheat (Triticum aestivum); assay: Test A postemergence, visual injury rating; conditions: 0 is no effect, 100 is complete control
Procedure, shortened: as §1

[13] = system: giant foxtail (Setaria faberii); assay: Test A postemergence, visual injury rating; conditions: 0 is no effect, 100 is complete control
Procedure, shortened: as §1

[14] = system: pigweed (Amaranthus retroflexus); assay: Test A postemergence, visual injury rating; conditions: 0 is no effect, 100 is complete control
Procedure, shortened: as §1

corn (Zea mays) [15] = assay: Test A postemergence, visual injury rating; conditions: 0 is no effect, 100 is complete control
Procedure, shortened: as §1

[16] = system: barnyardgrass (Echinochloa crus-galli); assay: Test A postemergence, visual injury rating; conditions: 0 is no effect, 100 is complete control
Procedure, shortened: as §1

[17] = system: ducksalad (Heteranthera limosa); assay: Test B flooded paddy test, plant response rating; conditions: 250 g ai/ha; Flood; scale of 0 to 100 where 0 is no effect and 100 is complete control; 13 to 15 days
Procedure, shortened: (§2)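 Pots were flooded to 3 cm above the soil surface at treatment, compound applied directly to the paddy water, and that depth held throughout. Plants were kept in a greenhouse for 13 to 15 days, then visually rated against untreated controls.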

rice (Oryza sativa) = assay: Test B flooded paddy test, plant response rating; conditions: 250 g ai/ha; Flood; scale of 0 to 100 where 0 is no effect and 100 is complete control; 13 to 15 days
Procedure, shortened: as §2

[18] = system: sedge, umbrella (small-flower umbrella sedge, Cyperus difformis); assay: Test B flooded paddy test, plant response rating; conditions: 250 g ai/ha; Flood; scale of 0 to 100 where 0 is no effect and 100 is complete control; 13 to 15 days
Procedure, shortened: as §2

[19] = system: barnyardgrass (Echinochloa crus-galli); assay: Test B flooded paddy test, plant response rating; conditions: 250 g ai/ha; Flood; scale of 0 to 100 where 0 is no effect and 100 is complete control; 13 to 15 days
Procedure, shortened: as §2

Row | SMILES | Morningglory plant response rating ([1]; 500 g ai/ha) | Velvetleaf plant response rating ([2]; 500 g ai/ha) | Crabgrass, Large plant response rating ([3]; 500 g ai/ha) | Wheat plant response rating ([4]; 500 g ai/ha) | Corn plant response rating (corn (Zea mays) [7]; 500 g ai/ha) | Morningglory plant response rating ([1]; 1000 g ai/ha) | Velvetleaf plant response rating ([2]; 1000 g ai/ha) | Crabgrass, Large plant response rating ([3]; 1000 g ai/ha) | Wheat plant response rating ([4]; 1000 g ai/ha) | Foxtail, Giant plant response rating ([5]; 1000 g ai/ha) | Pigweed plant response rating ([6]; 1000 g ai/ha) | Corn plant response rating (corn (Zea mays) [7]; 1000 g ai/ha) | Barnyardgrass plant response rating ([8]; 1000 g ai/ha) | Morningglory plant response rating (0 to 100 scale) ([9]; 1000 g ai/ha) | Crabgrass, Large plant response rating (0 to 100 scale) ([11]; 1000 g ai/ha) | Wheat plant response rating (0 to 100 scale) ([12]; 1000 g ai/ha) | Foxtail, Giant plant response rating (0 to 100 scale) ([13]; 1000 g ai/ha) | Pigweed plant response rating (0 to 100 scale) ([14]; 1000 g ai/ha) | Corn plant response rating (0 to 100 scale) (corn (Zea mays) [15]; 1000 g ai/ha) | Barnyardgrass plant response rating (0 to 100 scale) ([16]; 1000 g ai/ha) | other results
1 | O=C(NCC(F)(F)F)c1ccccc1Oc1ncc(Br)cn1 [Compound 27] | 0 | 0 | 0 | 0 | 0 |  |  |  |  |  |  |  |  |  |  |  |  |  |  |  | Foxtail, Giant plant response rating ([5]; 500 g ai/ha): 0; Pigweed plant response rating ([6]; 500 g ai/ha): 0; Barnyardgrass plant response rating ([8]; 500 g ai/ha): 0; Morningglory plant response rating (0 to 100 scale) ([9]; 500 g ai/ha): 0; Velvetleaf plant response rating (0 to 100 scale) ([10]; 500 g ai/ha): 0; Crabgrass, Large plant response rating (0 to 100 scale) ([11]; 500 g ai/ha): 0; Wheat plant response rating (0 to 100 scale) ([12]; 500 g ai/ha): 0; Foxtail, Giant plant response rating (0 to 100 scale) ([13]; 500 g ai/ha): 0; Pigweed plant response rating (0 to 100 scale) ([14]; 500 g ai/ha): 0; Corn plant response rating (0 to 100 scale) (corn (Zea mays) [15]; 500 g ai/ha): 0; Barnyardgrass plant response rating (0 to 100 scale) ([16]; 500 g ai/ha): 0
2 | O=C(NCC(F)(F)F)c1ccccc1Oc1ncc(Cl)cn1 [Compound 28, 2-[(5-chloro-2-pyrimidinyl)oxy]-N-(2,2,2-trifluoroethyl)benzamide] | 0 | 20 | 50 | 0 | 0 |  |  |  |  |  |  |  |  |  |  |  |  |  |  |  | pest or weed control at 500 g/ha ([5]; Setaria faberi, pre-emergence, 240 h, 500 g ai/ha, read-out: Foxtail, Giant plant response rating): 20%; pest or weed control at 500 g/ha ([6]; Amaranthus retroflexus, pre-emergence, 240 h, 500 g ai/ha, read-out: Pigweed plant response rating): 80%; pest or weed control at 500 g/ha ([8]; Echinochloa crus-galli, pre-emergence, 240 h, 500 g ai/ha, read-out: Barnyardgrass plant response rating): 20%; Morningglory plant response rating (0 to 100 scale) ([9]; 500 g ai/ha): 0; Velvetleaf plant response rating (0 to 100 scale) ([10]; 500 g ai/ha): 30; Crabgrass, Large plant response rating (0 to 100 scale) ([11]; 500 g ai/ha): 0; plant injury at 500 g/ha ([12]; Triticum aestivum, post-emergence, 240 h, 500 g ai/ha, read-out: Wheat plant response rating (0 to 100 scale)): 0%; pest or weed control at 500 g/ha ([13]; Setaria faberi, post-emergence, 240 h, 500 g ai/ha, read-out: Foxtail, Giant plant response rating (0 to 100 scale)): 0%; pest or weed control at 500 g/ha ([14]; Amaranthus retroflexus, post-emergence, 240 h, 500 g ai/ha, read-out: Pigweed plant response rating (0 to 100 scale)): 20%; plant injury at 500 g/ha (corn (Zea mays) [15]; Zea mays, post-emergence, 240 h, 500 g ai/ha, read-out: Corn plant response rating (0 to 100 scale)): 0%; pest or weed control at 500 g/ha ([16]; Echinochloa crus-galli, post-emergence, 240 h, 500 g ai/ha, read-out: Barnyardgrass plant response rating (0 to 100 scale)): 20%
3 | CC(C)ON=Cc1ccccc1Oc1ncc(Cl)cn1 [Compound 57] |  |  |  |  |  | 0 | 20 | 100 | 0 | 90 | 60 | 0 | 50 | 10 | 30 | 20 | 20 | 40 | 20 | 20 | Plant response rating, Ducksalad [17]: 0; Plant response rating, Rice (rice (Oryza sativa)): 0; Plant response rating, Sedge, Umbrella [18]: 0; Plant response rating, Barnyardgrass [19]: 0
4 | CC(=NOCc1ccccc1)c1ccccc1Oc1ncc(Cl)cn1 [Compound 58] |  |  |  |  |  | 0 | 20 | 100 | 20 | 100 | 50 | 20 | 90 | 30 | 80 | 20 | 60 | 100 | 30 | 40 | Velvetleaf plant response rating (0 to 100 scale) ([10]; 1000 g ai/ha): 90; Plant response rating, Ducksalad [17]: 0; Plant response rating, Rice (rice (Oryza sativa)): 0; Plant response rating, Sedge, Umbrella [18]: 0; Plant response rating, Barnyardgrass [19]: 0
5 | CC(=NOC(C)(C)C)c1ccccc1Oc1ncc(Cl)cn1 [Compound 59] |  |  |  |  |  | 0 | 0 | 80 | 0 | 30 | 30 | 0 | 20 | 0 | 10 | 30 | 10 | 30 | 20 | 0 | 
